Measurements: the NIST ThermoML archive (doi:10.1021/je9005618)

Test: xn = mol fraction of the nth substance listed
Details: 101 kPa, Liquid

CCn1cc[n+](C)c1.O=S(=O)([O-])C(F)(F)F [1-ethyl-3-methylimidazolium trifluoromethanesulfonate] + COC(C)=O
Details	mass density, 278.15 K [kg/m3]	mass density, 288.15 K [kg/m3]	mass density, 298.15 K [kg/m3]	mass density, 308.15 K [kg/m3]	mass density, 318.15 K [kg/m3]	speed of sound, 278.15 K [m/s]	speed of sound, 288.15 K [m/s]	speed of sound, 298.15 K [m/s]	speed of sound, 308.15 K [m/s]	speed of sound, 318.15 K [m/s]
x1 = 0.0502	1010.1	997.8	985.37	972.78	960.03	1259.8	1215.5	1171.7	1128.2	1084.8
x1 = 0.1006	1058.3	1046.52	1034.65	1022.69	1010.6	1278.4	1236.5	1195.1	1153.8	1112.8
x1 = 0.1501	1099.41	1088.09	1076.72	1065.29	1053.78	1298.1	1258.5	1219.4	1180.5	1141.9
x1 = 0.2001	1135.42	1124.48	1113.53	1102.55	1091.53	1316.6	1279.2	1242.4	1205.9	1169.7
x1 = 0.3003	1196.62	1186.31	1176.03	1165.76	1155.5	1350.2	1316.6	1283.5	1250.8	1218.7
x1 = 0.3999	1243.17	1233.3	1223.49	1213.71	1203.97	1376.9	1346	1315.8	1285.9	1256.7
x1 = 0.4997	1281.71	1272.18	1262.72	1253.32	1243.97	1400	1371.2	1343	1315.5	1288.5
x1 = 0.6	1313.96	1304.71	1295.53	1286.43	1277.38	1420.4	1393.3	1366.8	1340.9	1315.6
x1 = 0.7	1341.07	1332.05	1323.1	1314.23	1305.42	1438.5	1412.7	1387.6	1362.9	1338.9
x1 = 0.7986	1363.97	1355.14	1346.39	1337.7	1329.08	1454.4	1429.7	1405.6	1382	1358.9
x1 = 0.8509	1374.9	1366.17	1357.51	1348.91	1340.38	1462.2	1438	1414.4	1391.2	1368.6
x1 = 0.9008	1384.25	1375.61	1367.03	1358.51	1350.04	1469.1	1445.3	1422	1399.2	1377
x1 = 0.9504	1393.09	1384.52	1376.02	1367.58	1359.19	1475.6	1452	1429.1	1406.7	1384.8
